# In publication PMC4890880 (ACS infectious diseases, 2016):
# System: HepG2-A16-CD81EGFP cells
# Assay: not given
# Settings: human, 50 uM
SMILES,HepG2 Tox% @ 50 uM rep2,HepG2 Tox% @ 50 uM rep1
COc1cc2cc(C(=O)Nc3ccccc3)c(N)nc2cc1OC [MMV006767],10%,
CN1CCN(c2c3c(c(C#N)c4nc5ccccc5n24)CCC3)CC1 [MMV008127],-9%,
Cc1cc(C)cc(Nc2cc(C)nc3nc(C(F)(F)F)nn23)c1 [MMV011259],,30%
CCOC(=O)C1CCN(C(=O)CN2C(=O)c3ccccc3C2c2c[nH]c3ccccc23)CC1 (stereo not drawn) [MMV011576],-12%,-19%
CCN1CCN(c2cc(C)c3cc(NC(=O)c4ccc(OC)c(OC)c4)ccc3n2)CC1 [MMV019074],100%,
Cc1cc(NC(=O)c2cccc(C(F)(F)F)c2)n(-c2nc(-c3ccc4c(c3)OCO4)cs2)n1 [MMV396681],-14%,-15%
COc1cccc(C2(C)Nc3ccccc3-c3nc4ccccc4n32)c1 (stereo not drawn) [MMV396719],100%,
COc1ccc(C(=O)Nc2ccc(Cl)cc2C(=O)Nc2ccncc2)cc1 [MMV665799],-10%,-8%
CCOC(=O)c1c(NC(=O)c2ccccc2)sc2c(O)c(CN(CC)CC)ccc12 [MMV665831],,27%
COc1ccc(-c2nonc2NC(=O)c2cccc(C)c2)cc1OC [MMV665890],-3%,
O=C(Nc1ccccc1O)c1ccc(-c2ccc(Cl)cc2Cl)o1 [MMV665948],,15%
CCCC(c1nnnn1C1CCCCC1)N1CCN(C(=O)c2ccco2)CC1 (stereo not drawn) [MMV666093],,-6%
CN(C)c1ccc(-c2nc3cc(N)ccc3[nH]2)cc1 [MMV666102],,29%
COCCN(C(=O)Cc1cccs1)C(C(=O)NCc1ccc(OC)cc1)c1ccc(C(C)C)cc1 (stereo not drawn) [MMV666105],100%,

# System: HepG2-A16-CD81EGFP cells
# Assay: cells
# Settings: Homo sapiens, HepG2, read-out: % inhibition
row,SMILES,inhibition at 50 µM
1,COc1cc2cc(C(=O)Nc3ccccc3)c(N)nc2cc1OC [MMV006767],10.2%
2,CN1CCN(c2c3c(c(C#N)c4nc5ccccc5n24)CCC3)CC1 [MMV008127],-9.23%
3,Cc1cc(C)cc(Nc2cc(C)nc3nc(C(F)(F)F)nn23)c1 [MMV011259],54.7%
4,CCOC(=O)C1CCN(C(=O)CN2C(=O)c3ccccc3C2c2c[nH]c3ccccc23)CC1 (stereo not drawn) [MMV011576],-12.2%
5,CCN1CCN(c2cc(C)c3cc(NC(=O)c4ccc(OC)c(OC)c4)ccc3n2)CC1 [MMV019074],100%
6,Cc1cc(NC(=O)c2cccc(C(F)(F)F)c2)n(-c2nc(-c3ccc4c(c3)OCO4)cs2)n1 [MMV396681],-14.2%
7,COc1cccc(C2(C)Nc3ccccc3-c3nc4ccccc4n32)c1 (stereo not drawn) [MMV396719],99.7%
8,COc1ccc(C(=O)Nc2ccc(Cl)cc2C(=O)Nc2ccncc2)cc1 [MMV665799],-10.4%
9,CCOC(=O)c1c(NC(=O)c2ccccc2)sc2c(O)c(CN(CC)CC)ccc12 [MMV665831],34.3%
10,COc1ccc(-c2nonc2NC(=O)c2cccc(C)c2)cc1OC [MMV665890],-2.92%
11,O=C(Nc1ccccc1O)c1ccc(-c2ccc(Cl)cc2Cl)o1 [MMV665948],-7.03%
12,CCCC(c1nnnn1C1CCCCC1)N1CCN(C(=O)c2ccco2)CC1 (stereo not drawn) [MMV666093],-2.45%
13,CN(C)c1ccc(-c2nc3cc(N)ccc3[nH]2)cc1 [MMV666102],32.6%
14,COCCN(C(=O)Cc1cccs1)C(C(=O)NCc1ccc(OC)cc1)c1ccc(C(C)C)cc1 (stereo not drawn) [MMV666105],99.9%
15,CCOC(=O)C1=C(c2ccccc2)N=c2sc(=Cc3cc(C)n(-c4ccc(F)cc4)c3C)c(=O)n2C1c1cccc(OC)c1OC (stereo not drawn) [MMV666601],8.55%
16,COc1ccc(C=C2SC(=N)N(c3ccccc3OC)C2=O)cc1 [MMV666691],98.5%

# System: Plasmodium berghei (Pb-Luc) exoerythrocytic-stage parasites
# Assay: microbe, parasite or virus in culture
# Settings: read-out: Inhibition% @ 50 uM rep1
row,SMILES,inhibition at 50 µM
1,COc1cc2cc(C(=O)Nc3ccccc3)c(N)nc2cc1OC [MMV006767],73%
2,CN1CCN(c2c3c(c(C#N)c4nc5ccccc5n24)CCC3)CC1 [MMV008127],28%
3,Cc1cc(C)cc(Nc2cc(C)nc3nc(C(F)(F)F)nn23)c1 [MMV011259],100%
4,CCOC(=O)C1CCN(C(=O)CN2C(=O)c3ccccc3C2c2c[nH]c3ccccc23)CC1 (stereo not drawn) [MMV011576],41%
5,CCN1CCN(c2cc(C)c3cc(NC(=O)c4ccc(OC)c(OC)c4)ccc3n2)CC1 [MMV019074],104%
6,Cc1cc(NC(=O)c2cccc(C(F)(F)F)c2)n(-c2nc(-c3ccc4c(c3)OCO4)cs2)n1 [MMV396681],1.11%
7,COc1cccc(C2(C)Nc3ccccc3-c3nc4ccccc4n32)c1 (stereo not drawn) [MMV396719],104%
8,COc1ccc(C(=O)Nc2ccc(Cl)cc2C(=O)Nc2ccncc2)cc1 [MMV665799],67%
9,CCOC(=O)c1c(NC(=O)c2ccccc2)sc2c(O)c(CN(CC)CC)ccc12 [MMV665831],96%
10,COc1ccc(-c2nonc2NC(=O)c2cccc(C)c2)cc1OC [MMV665890],7%
11,O=C(Nc1ccccc1O)c1ccc(-c2ccc(Cl)cc2Cl)o1 [MMV665948],8%
12,CCCC(c1nnnn1C1CCCCC1)N1CCN(C(=O)c2ccco2)CC1 (stereo not drawn) [MMV666093],52%
13,CN(C)c1ccc(-c2nc3cc(N)ccc3[nH]2)cc1 [MMV666102],97%
14,COCCN(C(=O)Cc1cccs1)C(C(=O)NCc1ccc(OC)cc1)c1ccc(C(C)C)cc1 (stereo not drawn) [MMV666105],104%
15,CCOC(=O)C1=C(c2ccccc2)N=c2sc(=Cc3cc(C)n(-c4ccc(F)cc4)c3C)c(=O)n2C1c1cccc(OC)c1OC (stereo not drawn) [MMV666601],84%
16,COc1ccc(C=C2SC(=N)N(c3ccccc3OC)C2=O)cc1 [MMV666691],103%

# Same assay, conditions: read-out: Inhibition% @ 50 uM rep2
row,SMILES,inhibition at 50 µM
1,COc1cc2cc(C(=O)Nc3ccccc3)c(N)nc2cc1OC [MMV006767],39%
2,CN1CCN(c2c3c(c(C#N)c4nc5ccccc5n24)CCC3)CC1 [MMV008127],-16%
3,Cc1cc(C)cc(Nc2cc(C)nc3nc(C(F)(F)F)nn23)c1 [MMV011259],99%
4,CCOC(=O)C1CCN(C(=O)CN2C(=O)c3ccccc3C2c2c[nH]c3ccccc23)CC1 (stereo not drawn) [MMV011576],58%
5,CCN1CCN(c2cc(C)c3cc(NC(=O)c4ccc(OC)c(OC)c4)ccc3n2)CC1 [MMV019074],104%
6,Cc1cc(NC(=O)c2cccc(C(F)(F)F)c2)n(-c2nc(-c3ccc4c(c3)OCO4)cs2)n1 [MMV396681],-36%
7,COc1cccc(C2(C)Nc3ccccc3-c3nc4ccccc4n32)c1 (stereo not drawn) [MMV396719],106%
8,COc1ccc(C(=O)Nc2ccc(Cl)cc2C(=O)Nc2ccncc2)cc1 [MMV665799],39%
9,CCOC(=O)c1c(NC(=O)c2ccccc2)sc2c(O)c(CN(CC)CC)ccc12 [MMV665831],70%
10,COc1ccc(-c2nonc2NC(=O)c2cccc(C)c2)cc1OC [MMV665890],13%
11,O=C(Nc1ccccc1O)c1ccc(-c2ccc(Cl)cc2Cl)o1 [MMV665948],-61%
12,CCCC(c1nnnn1C1CCCCC1)N1CCN(C(=O)c2ccco2)CC1 (stereo not drawn) [MMV666093],19%
13,CN(C)c1ccc(-c2nc3cc(N)ccc3[nH]2)cc1 [MMV666102],94%
14,COCCN(C(=O)Cc1cccs1)C(C(=O)NCc1ccc(OC)cc1)c1ccc(C(C)C)cc1 (stereo not drawn) [MMV666105],105%
15,CCOC(=O)C1=C(c2ccccc2)N=c2sc(=Cc3cc(C)n(-c4ccc(F)cc4)c3C)c(=O)n2C1c1cccc(OC)c1OC (stereo not drawn) [MMV666601],87%
16,COc1ccc(C=C2SC(=N)N(c3ccccc3OC)C2=O)cc1 [MMV666691],104%

# System: HepG2-A16-CD81EGFP cells
# Assay: cells
# Settings: Homo sapiens, HepG2, read-out: % inhibition
# Remark: another data set of the same source
row,SMILES,inhibition at 50 µM
1,COc1cc2cc(C(=O)Nc3ccccc3)c(N)nc2cc1OC [MMV006767],18.2%
2,CN1CCN(c2c3c(c(C#N)c4nc5ccccc5n24)CCC3)CC1 [MMV008127],-6.02%
3,Cc1cc(C)cc(Nc2cc(C)nc3nc(C(F)(F)F)nn23)c1 [MMV011259],29.5%
4,CCOC(=O)C1CCN(C(=O)CN2C(=O)c3ccccc3C2c2c[nH]c3ccccc23)CC1 (stereo not drawn) [MMV011576],-18.5%
5,CCN1CCN(c2cc(C)c3cc(NC(=O)c4ccc(OC)c(OC)c4)ccc3n2)CC1 [MMV019074],98.4%
6,Cc1cc(NC(=O)c2cccc(C(F)(F)F)c2)n(-c2nc(-c3ccc4c(c3)OCO4)cs2)n1 [MMV396681],-14.6%
7,COc1cccc(C2(C)Nc3ccccc3-c3nc4ccccc4n32)c1 (stereo not drawn) [MMV396719],97%
8,COc1ccc(C(=O)Nc2ccc(Cl)cc2C(=O)Nc2ccncc2)cc1 [MMV665799],-8.2%
9,CCOC(=O)c1c(NC(=O)c2ccccc2)sc2c(O)c(CN(CC)CC)ccc12 [MMV665831],26.5%
10,COc1ccc(-c2nonc2NC(=O)c2cccc(C)c2)cc1OC [MMV665890],-1.53%
11,O=C(Nc1ccccc1O)c1ccc(-c2ccc(Cl)cc2Cl)o1 [MMV665948],15.3%
12,CCCC(c1nnnn1C1CCCCC1)N1CCN(C(=O)c2ccco2)CC1 (stereo not drawn) [MMV666093],-5.78%
13,CN(C)c1ccc(-c2nc3cc(N)ccc3[nH]2)cc1 [MMV666102],29.4%
14,COCCN(C(=O)Cc1cccs1)C(C(=O)NCc1ccc(OC)cc1)c1ccc(C(C)C)cc1 (stereo not drawn) [MMV666105],98.8%
15,CCOC(=O)C1=C(c2ccccc2)N=c2sc(=Cc3cc(C)n(-c4ccc(F)cc4)c3C)c(=O)n2C1c1cccc(OC)c1OC (stereo not drawn) [MMV666601],-7.05%
16,COc1ccc(C=C2SC(=N)N(c3ccccc3OC)C2=O)cc1 [MMV666691],94.9%
